From patent US12415987B2, “Methods and composition for producing and using immune cells and stem cells for cell-based therapies” (Angeles Therapeutics, Inc., priority 2016, dated 2025) come the findings set out here.

SMILES strings stand for the structures.

Holding throughout (type): cell-based, human
Experiment [1] has as its system T cells. Briefly: Chemotherapeutic selection of T cells: cell death by propidium iodide staining.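 Further: CD3 microbead-isolated T cells cultured with chemotherapy drugs, dead cells scored as propidium iodide-positive by flow cytometry.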
Procedure: (§4) T cells were isolated using CD3 microbeads. Cells were resuspended in T cell culture medium and treated under the following conditions. • 1. High dose Vincristine Treatment: Cells were treated with Vincristine (Sigma) at doses of 100, 250, 500, 750, 1000 ng/ml for 24 h. The following day, the medium was changed and cells cultured in Vincristine-free medium. • 2. Intermediate Dose Vincristine Treatment: Cells were treated with vincristine at intermediate doses of 5, 10, 20, 30, 50 ng/ml with continuous exposure of the drug thereafter. • 3. Low dose Vincristine Treatment: Cells were treated with vincristine at low doses 0.5, 1, 2, 2.5, 3 ng/ml with continuous exposure to the drug thereafter.
(§5) Cells were treated with Etoposide at dose 100, 500, 1000 nM • 6. Cells were treated with Adriamycin (doxorubicin) at 0.1, 0.5, 1 μg/ml
(§6) T cells treated with intermediate and high dose of vincristine were checked for Pgp^+ enrichment by DiOC2(3) efflux assay and cell death by Propidium iodide staining after 2 days of treatment. Cells were analyzed by flow cytometry.
The next experiment has as its system Pgp^+ T cells. Briefly: Chemotherapeutic selection of T cells: Pgp+ enrichment by DiOC2(3) efflux assay.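 On all read-outs here: CD3-isolated T cells exposed to chemotherapeutics, then loaded with DiOC2(3) and left to efflux dye, PI stained, flow cytometry, Pgp+ cells read as DiOC2(3)-dull.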 The settings on record: for % pgp+ (out of live cells): 8 days post-treatment; for % Pgp^+ (DiOC2(3)-dull) (out of live cells): 2 days post-treatment; for % Pgp+ (DiOC2(3)-dull) (gated on live cells): 7 days post-treatment.
The test system of experiment [2] is T cells. Briefly: Photodynamic cell therapy with TH9402: live T cells by flow cytometry / propidium iodide. The settings on record: for % live cells (Propidium iodide negative): after 9 days. Here is the method: (§1) T cells were isolated using PAN T-cell isolation kit (Miltenyi cat no. 130-096-535) from buffy coat preparation following Ficoll-Hypaque separation and RBC lysis as described above. 12 million T cells were resuspended at 1 million cells/ml in XVIVO T cell medium (Lonza) supplemented with 5 ng/ml IL7. Half (6 million) of the T cells were left untreated while the remaining half were treated with 10 μM of TH9402 compound. Cells were incubated at 37° C. in a water bath in dark for 40 min, washed with T-cell medium and then resuspended in TH9402-free T-cell medium. Cells were allowed to efflux TH9402 at 37° C. in dark in 10 ml of T cell medium for 2 h. Cells were centrifuged and re-suspended in fresh medium. Each sample was then plated in 2 wells of two different 6-well plates. One plate was left unexposed to light and the second plate was exposed for 1 h to light (1000×10 Lux units) from an LED lamp. Alternatively, light treatment can be achieved by exposure to a fluorescent light-scanning device (PDCT-Xerox Series 4, Theratechnologies) delivering 5 J/cm^2 at wavelength of 514 nm. After light exposure, cells were incubated in the XVIVO T cell medium with 5 ng/ml IL7 at 37° C. for 2 days in a 5% CO2 incubator. After 2 days, an aliquot of the cells were stained at 4° C. for 40 min with DiOC2(3) (60 ng/ml) in 10 ml RPMI with 10% FBS medium. DiOC2(3) is a known substrate of Pgp. Cells were centrifuged, washed, resuspended in 10 ml of dye-free RPMI-10% FBS medium to efflux dye at 37° C. for 90 min. After Dye efflux, the cells were stained with Propidium iodide (PI) and examined by flow cytometry. […] Furthermore, in the group that was treated with the TH9402 compound and then exposed to light, there was further enrichment for Pgp-expressing T cells (from 10% to 80%).
(§2) After 6 days, 250 μl cell aliquot from T cells were stained with DiOC2(3), allowed to efflux the dye and then stained with CD62L-APC, a marker present on human memory stem T cells (TSCM) with stem like properties.
(§3) After 9 days, 1 ml cell aliquot from T cells were stained with DiOC2(3), allowed to efflux the dye and then stained with CD62L-APC, a marker present on human memory stem T cells (TSCM) with stem like properties. Cells were then analyzed by flow cytometry. The % of cells in the different fractions are shown in FIG. 2 and the following table which show there is a significant decline in cell viability following exposure to light in both TH9402-treated and untreated cells.
For orientation: A flow cytometer gives signals particle by particle.

The next experiment relates to Pgp-expressing T cells. Briefly: Photodynamic cell therapy with TH9402: Pgp+ T cells by DiOC2(3) efflux (and CD62L staining). The settings on record: for % Pgp^+ cells (DiOC2(3)-dull): after 2 days. How it is done:
as §1, §2, §3

Another experiment relates to PBMC. The experiment is described as follows: Photodynamic TH9402 experiment repeated with PBMC. The settings on record: PBMC rather than purified T cells.
The mark [3] stands for this setting: 10 μM TH9402, 1 h exposure to light, after 6 days.
[4] abbreviates: 10 μM TH9402, 1 h exposure to light.
[5] abbreviates: 10 μM TH9402, unexposed to light, after 6 days.
[6] abbreviates: 10 μM TH9402, unexposed to light.
The mark [7] stands for this setting: 10 μM TH9402, 1 h exposure to light, after 9 days.
Where [8] appears, read: 10 μM TH9402, unexposed to light, after 9 days.
The mark [9] stands for this setting: 100 ng/ml for 24 h then drug-free medium.
[10] abbreviates: 250 ng/ml for 24 h then drug-free medium.
Setting [11] is: 500 ng/ml for 24 h then drug-free medium.
[12] abbreviates: 750 ng/ml for 24 h then drug-free medium.
The mark [13] stands for this setting: 1 μg/ml for 24 h then drug-free medium.

Procedure for Pgp^+ T cells: Half (6 million) of the T cells were left untreated while the remaining half were treated with 10 μM of TH9402 compound. Cells were incubated at 37° C. in a water bath in dark for 40 min, washed with T-cell medium and then resuspended in TH9402-free T-cell medium. Cells were allowed to efflux TH9402 at 37° C. in dark in 10 ml of T cell medium for 2 h. Cells were centrifuged and re-suspended in fresh medium. Each sample was then plated in 2 wells of two different 6-well plates. One plate was left unexposed to light and the second plate was exposed for 1 h to light (1000×10 Lux units) from an LED lamp. […] After light exposure, cells were incubated in the XVIVO T cell medium with 5 ng/ml IL7 at 37° C. for 2 days in a 5% CO2 incubator. After 2 days, an aliquot of the cells were stained at 4° C. for 40 min with DiOC2(3) (60 ng/ml) in 10 ml RPMI with 10% FBS medium. DiOC2(3) is a known substrate of Pgp. Cells were centrifuged, washed, resuspended in 10 ml of dye-free RPMI-10% FBS medium to efflux dye at 37° C. for 90 min. After Dye efflux, the cells were stained with Propidium iodide (PI) and examined by flow cytometry.
as §4, §5, §6

`COc1cccc2c1C(=O)c1c(O)c3c(c(O)c1C2=O)C[C@@](O)(C(=O)CO)C[C@@H]3O[C@H]1C[C@H](N)[C@H](O)[C@H](C)O1` [Adriamycin, doxorubicin]: the “% Cell Death (PI+ cells)” value is 5% in the experiment with T cells [1] (8 days post-treatment, 0.1 μg/ml); 7% in the experiment on T cells [1] (8 days post-treatment, 0.5 μg/ml); 12% in the experiment on T cells [1] (8 days post-treatment, 1 μg/ml). Also, the “enrichment of Pgp^+ or DiOC2(3)-dull cells (in words)” value in the experiment on Pgp^+ T cells (1 μg/ml, after 8 days of treatment) is “significant enrichment”. Besides, the figures for the “% pgp+ (out of live cells)” value with Pgp^+ T cells (0.1 μg/ml), with Pgp^+ T cells (0.5 μg/ml) and with Pgp^+ T cells (1 μg/ml) were 16%, 16% and 27%, respectively.
Turning to `COc1cc([C@@H]2c3cc4c(cc3[C@@H](O[C@@H]3O[C@@H]5CO[C@@H](C)O[C@H]5[C@H](O)[C@H]3O)[C@H]3COC(=O)[C@H]23)OCO4)cc(OC)c1O` [Etoposide], the “% Cell Death (PI+ cells)” value turned out to be 5% in the experiment with T cells [1] (8 days post-treatment, 0.1 uM); 5% in the experiment with T cells [1] (8 days post-treatment, 1 uM); 4% in the experiment on T cells [1] (8 days post-treatment, 0.5 unM). In addition, the “% pgp+ (out of live cells)” value in the experiment with Pgp^+ T cells (0.1 uM) is recorded as 15%; with Pgp^+ T cells (1 uM), 15%; in the experiment on Pgp^+ T cells (0.5 unM), 16%.
With `CO[C@H]1C[C@@H]2CC[C@@H](C)[C@@](O)(O2)C(=O)C(=O)N2CCCC[C@H]2C(=O)O[C@H]([C@H](C)C[C@@H]2CC[C@@H](O)[C@H](OC)C2)CC(=O)[C@H](C)/C=C(\C)[C@@H](O)[C@@H](OC)C(=O)[C@H](C)C[C@H](C)/C=C/C=C/C=C/1C` [Rapamycin], the “% Cell Death (PI+ cells)” value in the experiment with T cells [1] (8 days post-treatment, 100 ng/ml) is 11%. Also, the “% pgp+ (out of live cells)” value in the experiment with Pgp^+ T cells (100 ng/ml) is given as 15%.
Take `COC(=O)c1ccccc1-c1c2ccc(=N)c(Br)c-2oc2c(Br)c(N)ccc12` [TH9402]: the “% live cells (P1)” value in the experiment on T cells [2] (10 μM TH9402, 1 h exposure to light, after 2 days) was 10%; with T cells [2] (setting [3]), 14%; with T cells [2] (10 μM TH9402, unexposed to light, after 2 days) it was 78%; with T cells [2] (setting [5]), 75%. In addition, the figures for the “% live cells (Propidium iodide negative)” value with T cells [2] (setting [4]) and in the experiment with T cells [2] (setting [6]) were 27% and 79%, respectively. The “% Pgp^+ cells (DiOC2(3)-dull)” value with Pgp-expressing T cells (setting [4]) was determined as 80%; with Pgp-expressing T cells (setting [6]), 10%. Moreover, the “% Pgp^+ (DiOC2(3)-dull cells (based on dye efflux) (gated on live cells))” value was 70% in the experiment on Pgp-expressing T cells (setting [3]), 79% with Pgp-expressing T cells (setting [7]), 4% in the experiment on Pgp-expressing T cells (setting [5]) and 45% in the experiment on Pgp-expressing T cells (setting [8]). Further, the “% Pgp^+ (DiOC2(3)-dull), CD62L+ cells (gated on live cells)” value in the experiment on Pgp-expressing T cells (setting [3]) came out at 69%; with Pgp-expressing T cells (setting [7]), 67%; with Pgp-expressing T cells (setting [5]), 2%; in the experiment on Pgp-expressing T cells (setting [8]), 21%. The “enrichment of Pgp-expressing cells, experiment repeated with PBMC” value in the experiment on PBMC is “Essentially similar results”.
In the case of `COc1ccc(CCN(C)CCCC(C#N)(c2ccc(OC)c(OC)c2)C(C)C)cc1OC` (stereo not drawn) [Verapamil], the “% Cell Death (PI+ cells)” value came out at 4% with T cells [1] (8 days post-treatment, 1 uM); 3% in the experiment with T cells [1] (8 days post-treatment, 5 uM); 3% with T cells [1] (8 days post-treatment, 10 uM).
Turning to `CC[C@]1(O)C[C@H]2CN(CCc3c([nH]c4ccccc34)[C@@](C(=O)OC)(c3cc4c(cc3OC)N(C=O)[C@H]3[C@@](O)(C(=O)OC)[C@H](OC(C)=O)[C@]5(CC)C=CCN6CC[C@]43[C@@H]65)C2)C1` [Vincristine], the “% Cell Death (PI+ cells)” value is on record as 13% with T cells [1] (2 days post-treatment, 5 ng/ml, continuous exposure); 15% with T cells [1] (2 days post-treatment, 10 ng/ml, continuous exposure); 15% with T cells [1] (2 days post-treatment, 20 ng/ml, continuous exposure); 20% in the experiment with T cells [1] (2 days post-treatment, 30 ng/ml, continuous exposure); 15% in the experiment on T cells [1] (2 days post-treatment, 50 ng/ml, continuous exposure); 28% in the experiment on T cells [1] (2 days post-treatment, 100 ng/ml for 24 h then drug-free medium). Also, the “% Cell Death (PI+ cells)” value with T cells [1] (2 days post-treatment, 250 ng/ml for 24 h then drug-free medium) came to 31%; in the experiment on T cells [1] (2 days post-treatment, 500 ng/ml for 24 h then drug-free medium), 27%; in the experiment on T cells [1] (2 days post-treatment, 750 ng/ml for 24 h then drug-free medium), 30%; in the experiment on T cells [1] (2 days post-treatment, 1 μg/ml for 24 h then drug-free medium), 31%; in the experiment with T cells [1] (7 days post-treatment, 0.5 ng/ml, continuous exposure), 10%; with T cells [1] (7 days post-treatment, 1 ng/ml, continuous exposure), 12%. Also, the “% Cell Death (PI+ cells)” value in the experiment on T cells [1] (7 days post-treatment, 2 ng/ml, continuous exposure) turned out to be 8%; in the experiment on T cells [1] (7 days post-treatment, 2.5 ng/ml, continuous exposure), 10%; with T cells [1] (7 days post-treatment, 3 ng/ml, continuous exposure), 14%; with T cells [1] (7 days post-treatment, 5 ng/ml, continuous exposure), 9%; in the experiment on T cells [1] (7 days post-treatment, 10 ng/ml, continuous exposure), 9%; with T cells [1] (7 days post-treatment, 20 ng/ml, continuous exposure) it was 9%. For the same compound, the “% Cell Death (PI+ cells)” value with T cells [1] (7 days post-treatment, 50 ng/ml, continuous exposure) was 14%; in the experiment on T cells [1] (7 days post-treatment, 100 ng/ml for 24 h then drug-free medium), 16%; in the experiment with T cells [1] (7 days post-treatment, 250 ng/ml for 24 h then drug-free medium), 25%; with T cells [1] (7 days post-treatment, 500 ng/ml for 24 h then drug-free medium) it was 26%; in the experiment with T cells [1] (7 days post-treatment, 750 ng/ml for 24 h then drug-free medium) it was 29%; in the experiment with T cells [1] (7 days post-treatment, 1 μg/ml for 24 h then drug-free medium), 23%. In addition, the “% Pgp^+ (DiOC2(3)-dull) (out of live cells)” value with Pgp^+ T cells (5 ng/ml, continuous exposure) was 8%; with Pgp^+ T cells (10 ng/ml, continuous exposure), 9%; in the experiment on Pgp^+ T cells (20 ng/ml, continuous exposure), 9%; with Pgp^+ T cells (30 ng/ml, continuous exposure), 11%; in the experiment with Pgp^+ T cells (50 ng/ml, continuous exposure), 10%; with Pgp^+ T cells (setting [9]), 11%. Further, the “% Pgp^+ (DiOC2(3)-dull) (out of live cells)” value with Pgp^+ T cells (setting [10]) is 11%; with Pgp^+ T cells (setting [11]), 13%; with Pgp^+ T cells (setting [12]) it was 14%; with Pgp^+ T cells (setting [13]), 14%. Further, the “% Pgp+ (DiOC2(3)-dull) (gated on live cells)” value (“% Pgp+ (DiOC2(3)-dull)” below) in the experiment with Pgp^+ T cells (0.5 ng/ml, continuous exposure) is 7%; with Pgp^+ T cells (1 ng/ml, continuous exposure), 7%; in the experiment on Pgp^+ T cells (2 ng/ml, continuous exposure), 7%; in the experiment with Pgp^+ T cells (2.5 ng/ml, continuous exposure), 7%; in the experiment with Pgp^+ T cells (3 ng/ml, continuous exposure), 9%; in the experiment on Pgp^+ T cells (5 ng/ml, continuous exposure) it was 8%. Further, the “% Pgp+ (DiOC2(3)-dull)” value in the experiment on Pgp^+ T cells (10 ng/ml, continuous exposure) was 10%; with Pgp^+ T cells (20 ng/ml, continuous exposure), 10%; in the experiment on Pgp^+ T cells (50 ng/ml, continuous exposure) it was 9%; in the experiment with Pgp^+ T cells (setting [9]), 13%; with Pgp^+ T cells (setting [10]), 11%; in the experiment with Pgp^+ T cells (setting [11]), 9%. For the same compound, the “% Pgp+ (DiOC2(3)-dull)” value was determined as 10% with Pgp^+ T cells (setting [12]) and 18% with Pgp^+ T cells (setting [13]). In the experiment on Pgp^+ T cells (higher dose treatments, after 2 days), the “enrichment of Pgp^+ cells (in words)” value is “modest enrichment”.
